Results: patent US20020182736A1, “Methods to measure lipid antioxidant activity” (TRUSTEES OF TUFTS COLLEGE, priority 2001, published 2002)
Where “and” joins values, the source holds several entries; their conditions need not be identical. Identical values can stand only once.

Tests used:
[1] = system: aqueous plasma compartment oxidation; assay: Aqueous plasma compartment oxidation, DCFH to DCF fluorescence; design: species or system human
Experimental: The final plasma dilution was 1:5 (v/v).
DCFH was prepared from DCFH-DA by basic hydrolysis. Briefly 500 μl of DCFH-DA stock solution (1 mM) was mixed with 2 ml of NaOH (0.01 N at 4° C.) for 20 minutes while protected from the light. The mixture was then neutralized with 2 ml of HCl (0.01 N), diluted with PBS to a final concentration of 10 μM and stored in ice for no longer than 8 hrs (working solution); an aliquot of 100 μl was added to 200 μl of plasma and then diluted to a final volume of 1 ml with PBS. […] The excitation wavelength (λex) was set at […] (slit 5 nm) and emission (λem) at 520 nm (slit 5 nm).
Values are mean±SD of five independent experiments. […] Samples were incubated at 37° C. in the dark and at fixed times the DCF content measured by fluorescence (λex=502 nm, λem=520 nm).

[2] = 37° C; cited from earlier work
[3] = system: lipid plasma compartment oxidation; assay: Lipid plasma compartment oxidation, BODIPY 581/591 green fluorescence; conditions: 20 mM AAPH
Experimental: Plasma oxidation was measured fluorometrically using two different fluorescent probes: DCFH and BODIPY. DCFH-DA and BODIPY stock solutions were prepared in EtOH and dimethylsulfoxide, respectively, stored under nitrogen at −20° C. and used within two months. The final plasma dilution was 1:5 (v/v).
In the experiments using β-carotene, to avoid the filtering effect due to the carotenoid, the oxidation product of BODIPY was also detected at λex=520 and at λem-540 nm. The fluorescence measurements were carried out using a Perkin Elmer spectrofluorometer (model 650-10s) with 1 cm path length fluorescence cuvettes.
Briefly, β-carotene (dissolved in stabilized THF, 10 mg/ml) or α-tocopherol (4.3 mg/ml in EtOH) were added to plasma to reach a final concentration of 50 μM; the samples were then vortexed for 30 sec and incubated at 37±1° C. for 1 to 6 hr under nitrogen. […] Controls were prepared in the same way using solvent only.
The effect of adding the membrane soluble antioxidants, α-tocopherol (in EtOH) and β-carotene (in THF), pre-incubated with plasma, was studied. […] Values are mean±SD of five independent experiments. Statistical analysis: one-way ANOVA with Tukey's post test; *p<0.05, **p<0.01.
To monitor the aqueous phase oxidizability, AAPH was used as a hydrophilic radical generator and coupled to DCFH was used as the indicator.

## CC(C)(N=NC(C)(C)C(=N)N)C(=N)N.Cl.Cl [AAPH, 2,2′-azobis (2-amidinopropane) dihydrochloride]
[1]; 10 mM AAPH
  start of propagation phase of DCFH oxidation in plasma: 180 min
[1]; 20 mM AAPH, dihydrochloride
  start of propagation phase / lag phase of DCFH oxidation in plasma: 90 min and 120 min
[2]
  rate of free radical generation Ri: 1.36×10^−6 [AAPH] mol/liter/sec
[3]
  delay of BODIPY oxidation in plasma: 180 min
